The numbers were not newly measured in patent US6548645B1, “Immunoassay for 2-oxo-3-hydroxy LSD” (Microgenetics Corporation, priority 1999, dated 2003), which cites them from elsewhere.

For data set [1], the system named is antibodies generated by LSD immunogens (LSD analogs derivatized through N-1 or N-6 conjugated to a carrier). As to conditions: molar ratio; relative to LSD; antibodies of Salamone et al., Bioconjugate Chem 8:896-905 (1997).
The conditions of data set [2]: man; calculated.
The conditions of data set [3]: doses as low as.

On to `CCN(CC)C(=O)C1C=C2c3cccc4c3C(O)(CC2N(C)C1)C(=O)N4` (stereo not drawn) [2PATENT -oxo-3-hydroxy-LSD, 2-oxo-3-hydroxy-LSD], for which the cross-reactivity in data set [1] is listed as 30-45%.

For `CCN(CC)C(=O)[C@@H]1C=C2c3cccc4[nH]cc(c34)C[C@H]2N(C)C1` [LSD], the plasma half-life entry in data set [2] is on record as “about 3 hours”. For the same compound, the “oral dose causing central nervous system disturbances (hallucinations, distortions in sensory perception, mood changes)” value in data set [3] is at least 25 µg.
